Assay results as given in patent US5225528A, “Cyclic hexapeptide oxytocin antagonists” (priority 1990, dated 1993).
Where two headings read alike, the source gives them in different places. Each block holds one compound with its values, some of them ahead of it. Numbered stars: 1 amine (or outer) side, 2 acyl side, 3 side chain; on linkers, the order of the positions; unused ones are H or OH. Square brackets hold non-standard residues; d marks the D form. Peptide text beside a SMILES is read from it. * marks the point of attachment. dPip(4-aza,4-Cbz) = O=C(O)[C@H]1CN(C(=O)OCc2ccccc2)CCN1; dPiz(1,6-dehydro) = O=C(O)[C@H]1CCC=NN1; d1Nal = N[C@H](Cc1cccc2ccccc12)C(=O)O; d2Nal = N[C@H](Cc1ccc2ccccc2c1)C(=O)O; X12 = O=C([C@@H]1CCCNN1[*:1])[*:2]; Hyp = O=C(O)[C@@H]1C[C@@H](O)CN1; Pip(4-aza) = O=C(O)[C@@H]1CNCCN1; X6 = O=C([C@H]1CCCNN1[*:1])[*:2]; dNMeF = CN[C@H](Cc1ccccc1)C(=O)O; dPip(4-aza) = O=C(O)[C@H]1CNCCN1; dCha = N[C@H](CC1CCCCC1)C(=O)O; Phg = N[C@H](C(=O)O)c1ccccc1; Pip = O=C(O)[C@@H]1CCCCN1; dPip = O=C(O)[C@H]1CCCCN1; Cbz = O=C(OCc1ccccc1)*; OtBu = CC(C)(C)O*; Acm = CC(=O)NC*

Legend:
[1] = molecular target: T1, AVP-V1 sites (Rattus norvegicus, UniProt P30560); assay: [^3 H]AVP binding to crude membrane preparation of male rat liver (AVP-V1 sites)
T1 construct: crude membrane preparation of male rat liver (AVP-V1 sites); from tissue; host or cells: male rat liver, crude membranes
Procedure: (§1) Nonspecific binding (5-10% of the total binding) was determined using 10 μM unlabeled AVP, and the binding reaction was terminated by filtration as described above for the [^3 H]OT binding assay.

[2] = molecular target: T2, AVP-V2 sites (Rattus norvegicus, UniProt Q00788); assay: [^3 H]AVP binding to crude membrane preparation of male rat kidney medulla (AVP-V2 sites)
T2 construct: male rat liver (AVP-V1 sites) or kidney medulla (AVP-V2 sites); from tissue; host or cells: male rat kidney medulla, crude membranes
Procedure: as §1

[3] = molecular target: T3, uterine OT receptors (Rattus norvegicus, UniProt P70536); assay: [^3 H]OT binding to uterine OT receptors, crude membrane preparation of uteri from DES-treated rats; conditions: for IC50: rat uterus membranes, 1 nM [^3 H]OT, read-out: Receptor Binding Results IC50 (nM) [^3 H]OT
T3 construct: from tissue; host or cells: uterus of DES-treated rats, crude membranes
T3 sequence (P70536 1-388): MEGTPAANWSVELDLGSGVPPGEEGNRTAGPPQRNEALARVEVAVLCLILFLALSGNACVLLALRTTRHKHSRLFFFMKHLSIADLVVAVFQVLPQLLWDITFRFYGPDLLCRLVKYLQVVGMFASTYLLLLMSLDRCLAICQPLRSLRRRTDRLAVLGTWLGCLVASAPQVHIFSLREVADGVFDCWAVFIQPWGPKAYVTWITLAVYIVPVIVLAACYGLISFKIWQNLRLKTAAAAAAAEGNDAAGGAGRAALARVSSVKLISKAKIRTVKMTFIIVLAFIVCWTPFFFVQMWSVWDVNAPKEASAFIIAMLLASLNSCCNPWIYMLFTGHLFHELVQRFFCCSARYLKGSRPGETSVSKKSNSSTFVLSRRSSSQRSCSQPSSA
Procedure: Competition studies were conducted at equilibrium (60 minutes; 22° C.) using 1 nM [^3 H]OT in the following assay buffer: 50 mM Tris-HCl, 5 mM MgCl2, and 0.1% BSA, pH 7.4.

[4] = Receptor Binding Results IC50 (nM) [^3 H]-AVP-V1
[5] = rat kidney medulla membranes, 2 nM [^3 H]AVP, read-out: Receptor Binding Results IC50 (nM) [^3 H]-AVP-V2
[6] = Receptor Binding Results IC50 (nM) [^3 H]-AVP-V2
[7] = read-out: Receptor Binding Results IC50 (nM) [^3 H]-AVP-V1
[8] = read-out: Receptor Binding Results IC50 (nM) [^3 H]-AVP-V2

T1 sequence (P30560 whole entry): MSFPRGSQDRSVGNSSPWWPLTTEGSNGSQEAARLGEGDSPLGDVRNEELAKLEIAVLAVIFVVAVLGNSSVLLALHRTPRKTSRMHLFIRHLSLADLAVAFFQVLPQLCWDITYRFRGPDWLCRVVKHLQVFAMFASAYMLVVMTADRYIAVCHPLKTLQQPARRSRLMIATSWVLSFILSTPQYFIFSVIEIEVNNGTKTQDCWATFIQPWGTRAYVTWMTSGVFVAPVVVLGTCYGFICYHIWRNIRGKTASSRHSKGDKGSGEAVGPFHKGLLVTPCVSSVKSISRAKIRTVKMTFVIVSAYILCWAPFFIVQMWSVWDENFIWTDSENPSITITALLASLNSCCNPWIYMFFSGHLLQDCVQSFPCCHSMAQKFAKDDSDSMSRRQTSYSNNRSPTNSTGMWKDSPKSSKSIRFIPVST
T2 sequence (Q00788 whole entry): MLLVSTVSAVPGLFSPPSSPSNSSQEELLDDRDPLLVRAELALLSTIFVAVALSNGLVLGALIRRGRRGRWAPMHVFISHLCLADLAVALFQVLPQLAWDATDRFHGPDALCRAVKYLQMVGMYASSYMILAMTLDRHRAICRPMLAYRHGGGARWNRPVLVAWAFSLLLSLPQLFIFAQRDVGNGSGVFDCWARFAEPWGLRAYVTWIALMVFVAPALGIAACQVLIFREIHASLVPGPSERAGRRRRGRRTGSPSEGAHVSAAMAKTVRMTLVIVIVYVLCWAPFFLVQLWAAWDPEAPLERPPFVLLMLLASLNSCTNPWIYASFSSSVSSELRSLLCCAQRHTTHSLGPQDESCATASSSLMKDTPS

IC50 [1, 7]: 6850 nM | IC50 [2, 8]: 175 nM | IC50 [3]: 3.1 nM
Compound: CC[C@H](C)[C@@H]1NC(=O)[C@@H](Cc2c[nH]c3ccccc23)NC(=O)[C@@H]2CCCN2C(=O)[C@@H](Cc2ccccc2)N(C)C(=O)[C@@H]2CNCCN2C(=O)[C@H]2CCC=NN2C1=O [Example 170, c-[D-Tryptophanyl-L-isoleucinyl-D-Δ-piperazyl-L-piperazin-2-yl-N^α -Me-D-phenylalanyl-L-prolyl]] (cyclo(I[dPiz(1,6-dehydro)][Pip(4-aza)][dNMeF]P[dW]))

IC50 [1, 7]: 4200 nM | IC50 [2, 8]: 3500 nM | IC50 [3]: 111 nM
Compound: CC[C@H](C)[C@@H]1NC(=O)[C@@H](Cc2ccccc2)NC(=O)[C@@H]2CCCN2C(=O)[C@@H](Cc2ccccc2)N(C)C(=O)[C@@H]2CCCCN2C(=O)[C@H]2CCCNN2C1=O [Example 111, c-[D-Phenylalanyl-L-isoleucyl-D-piperazyl-L-pipecolyl-N-methyl-D-phenylalanyl-L-prolyl]] (cyclo(I[X6][Pip][dNMeF]P[dF]))

IC50 [1, 7]: 2900 nM | IC50 [3]: 245 nM
Compound: CC[C@H](C)[C@@H]1NC(=O)[C@@H](Cc2ccccc2)NC(=O)[C@@H]2CCCN2C(=O)[C@@H](Cc2ccccc2)NC(=O)[C@@H]2CCCNN2C(=O)[C@H]2CCCNN2C1=O [Example 96, c-[L-prolyl-D-phenylalanyl-L-isoleucyl-D-piperazyl-L-piperazyl-D-phenylalanyl]] (cyclo(I[X6][X12][dF]P[dF]))

IC50 [3]: > 10000 nM
Compound: CC[C@H](C)[C@@H]1NC(=O)[C@@H](Cc2ccccc2)NC(=O)[C@@H]2CCCN2C(=O)[C@@H](Cc2ccccc2)NC(=O)[C@@H]2C[C@@H](O)CN2C(=O)[C@H]2CCCN2C1=O [Example 71, c-[D-Phenylalanyl-L-isoleucyl-D-prolyl-L-trans-hydroxyprolyl-D-phenylalanyl-L-prolyl]] (cyclo([Hyp][dF]P[dF]I[dP]))

IC50 [3]: 2500 nM
Compound: CC[C@H](C)[C@@H]1NC(=O)[C@@H](CC2CCCCC2)NC(=O)[C@@H]2CCCN2C(=O)[C@@H](Cc2ccccc2)NC(=O)[C@@H]2CCCN2C(=O)[C@H]2CCCN2C1=O [Example 55] (cyclo([dCha]I[dP]P[dF]P))

IC50 [3]: > 10000 nM
Compound: CC[C@H](C)[C@@H]1NC(=O)[C@@H](Cc2ccccc2)NC(=O)[C@@H]2CCCN2C(=O)[C@@H](CSCNC(C)=O)NC(=O)[C@@H]2CCCN2C(=O)[C@H]2CCCN2C1=O [Example 58, c-[D-Phenylalanyl-L-isoleucyl-D-prolyl-L-prolyl-D-cysteinyl(Acm)-L-prolyl]] (cyclo([dC](Acm)P[dF]I[dP]P))

IC50 [3]: > 10000 nM
Compound: O=C1N[C@@H](c2ccccc2)C(=O)N2CCC[C@@H]2C(=O)N2CCC[C@H]2C(=O)N[C@H](Cc2ccccc2)C(=O)N2CCC[C@H]2C(=O)N[C@@H]1Cc1ccccc1 [Example 63, c-[D-Phenylalanyl-L-phenylglycyl-D-prolyl-L-prolyl-D-phenylalanyl-L-prolyl]] (cyclo([dF]P[dF][Phg][dP]P))

The next lines start with the compound.

Compound: CC[C@H](C)[C@@H]1NC(=O)[C@@H](Cc2ccccc2)NC(=O)[C@@H]2CCCN2C(=O)[C@@H](CC(=O)OC(C)(C)C)NC(=O)[C@@H]2CCCCN2C(=O)[C@H]2CCCCN2C1=O [Example 179, c-[D-Phenylalanyl-L-isoleucinyl-D-pipecolyl-L-pipecolyl-D-(β-t-butyl)aspartyl-L-prolyl]] (cyclo(I[dPip][Pip][dD](OtBu)P[dF]))
IC50 [1, 4]: > 10000 nM | IC50 [2, 5]: > 10000 nM | inhibition at 1 µM ([3]; 1 h, @ 1,000 (nM), read-out: [^3 H]OT: percent inhibition of radioligand at the given concentration): 63%

Compound: CC[C@H](C)[C@@H]1NC(=O)[C@@H](Cc2c[nH]c3ccccc23)NC(=O)[C@@H]2CCCN2C(=O)[C@@H](Cc2ccccc2)N(C)C(=O)[C@H]2CN(C(=O)OCc3ccccc3)CCN2C(=O)[C@H]2CCCCN2C1=O [Example 91, c-[D-Tryptophanyl-L-isoleucinyl-D-pipecolyl-D-piperazin-2-yl(4-Cbz)-D-(N^α -methyl)phenylalanyl-L-prolyl]] (cyclo(I[dPip][dPip(4-aza,4-Cbz)][dNMeF]P[dW]))
IC50 [1, 4]: > 10000 nM | IC50 [2, 6]: > 1000 nM | IC50 [3]: 93 nM

Compound: CC[C@H](C)[C@@H]1NC(=O)[C@@H](Cc2ccccc2)NC(=O)[C@@H]2CCCN2C(=O)[C@@H](Cc2c[nH]c3ccccc23)NC(=O)[C@@H]2CCCCN2C(=O)[C@H]2CCCCN2C1=O [Example 25, Cyclo[D-phenylalanyl-L-isoleucyl-D-pipecolyl-L-pipecolyl-D-trytophanyl-L-prolyl]] (cyclo(I[dPip][Pip][dW]P[dF]))
IC50 [1, 7]: 3000 nM | IC50 [2, 8]: 3900 nM | IC50 [3]: 120 nM

Compound: CC[C@H](C)[C@@H]1NC(=O)[C@@H](Cc2c[nH]c3ccccc23)NC(=O)[C@@H]2CCCN2C(=O)[C@@H](Cc2c[nH]c3ccccc23)NC(=O)[C@H](CCCCNC(=O)OCc2ccccc2)NC(=O)[C@H]2CCCCN2C1=O [Example 29, Cyclo[D-tryptophanyl-L-isoleucyl-D-pipecolyl-L-(carbobenzloxy)lysyl-D-tryptophanyl-L-prolyl]] (cyclo(I[dPip]K(Cbz)[dW]P[dW]))
IC50 [1, 4]: > 10000 nM | IC50 [2, 5]: > 10000 nM | inhibition at 0.1 µM ([3]; 1 h, @ 100 (nM), read-out: [^3 H]OT: percent inhibition of radioligand at the given concentration): 32%

Compound: CC[C@H](C)[C@@H]1NC(=O)[C@@H](Cc2ccccc2)NC(=O)[C@@H]2CCCN2C(=O)[C@@H](Cc2ccccc2)NC(=O)[C@@H]2CCCCN2C(=O)[C@H]2CNCCN2C1=O [Example 84, c-[D-Phenylalanyl-L-isoleucinyl-D-piperazin-2-yl-L-pipecolyl-D-phenyalanyl-L-prolyl]] (cyclo(I[dPip(4-aza)][Pip][dF]P[dF]))
IC50 [1, 4]: 10000 nM | IC50 [2, 5]: > 10000 nM | IC50 [3]: > 1000 nM

Compound: CC[C@H](C)[C@@H]1NC(=O)[C@@H](Cc2ccc3ccccc3c2)NC(=O)[C@@H]2CCCN2C(=O)[C@@H](Cc2ccccc2)N(C)C(=O)[C@H](CCCCN)NC(=O)[C@H]2CCCCN2C1=O [Example 140, C-[D-2-Napthylalanyl-L-isoleucyl-D-pipecolyl-L-lysyl-D-(N-methyl)phenylalanyl-L-prolyl]] (cyclo([d2Nal]I[dPip]K[dNMeF]P))
inhibition at 1 µM ([2]; 0.5 h, @ 1,000 (nM), read-out: [^3 H]-AVP-V2: percent inhibition of radioligand at the given concentration): 84%

Compound: C-[D,L-3-(3-(7-Methyl)indolyl)alanyl-L-isoleucyl-D-pipecolyl-L-pipecolyl-D- histidyl-L-prolyl] [Example 155]
[^3 H]-AVP-V2: percent inhibition of radioligand at the given concentration ([2]; @ 1,000 (nM)): 30% | [^3 H]OT: percent inhibition of radioligand at the given concentration ([3]; @ 100 (nM)): 48%

Compound: CC[C@H](C)[C@@H]1NC(=O)C(Cc2cn(C)c3ccccc23)NC(=O)[C@@H]2CCCN2C(=O)[C@@H](Cc2c[nH]cn2)NC(=O)[C@@H]2CCCCN2C(=O)[C@H]2CCCCN2C1=O (single isomer, unassigned) [153 lower Rf]
inhibition at 10 µM ([2]; 0.5 h, @ 10,000 (nM), read-out: [^3 H]-AVP-V2: percent inhibition of radioligand at the given concentration): 73%

Compound: c-[D,L-3-(3-(1-Methyl)indolyl)alanyl-L-isoleucyl-D-pipecolyl-L-pipecolyl-D- histidyl-L-prolyl] [Example 153]
[^3 H]-AVP-V2: percent inhibition of radioligand at the given concentration ([2]; @ 1,000 (nM)): 35% | [^3 H]OT: percent inhibition of radioligand at the given concentration ([3]; @ 10 (nM)): 48%

Compound: CN1C(=O)[C@@H]2CCCCN2C(=O)[C@H]2CCCCN2C(=O)[C@H](Cc2ccccc2)NC(=O)[C@@H](Cc2c[nH]c3ccccc23)NC(=O)[C@@H]2CCCN2C(=O)[C@H]1Cc1ccccc1 [Example 134, c-[D-Tryptophanyl-L-phenylalanyl-D-pipecolyl-L-pipecolyl-D-(N-methyl)phenylalanyl-prolyl]] (cyclo(F[dPip][Pip][dNMeF]P[dW]))
IC50 [2, 8]: 8000 nM | IC50 [3]: 110 nM

Compound: CC[C@H](C)[C@@H]1NC(=O)[C@@H](Cc2cccc3ccccc23)NC(=O)[C@@H]2CCCN2C(=O)[C@@H](Cc2cnc[nH]2)NC(=O)[C@@H]2CCCCN2C(=O)[C@H]2CCCCN2C1=O [Example 11, Cyclo[D-a-naphthalalanyl-L-isoleucyl-D-pipecolyl-L-pipecolyl-D-histidyl-L-prolyl]] (cyclo(I[dPip][Pip][dH]P[d1Nal]))
IC50 [1, 4]: > 1000 nM | IC50 [2, 6]: > 1000 nM

Compound: CC[C@H](C)[C@@H]1NC(=O)[C@@H](Cc2cccc3ccccc23)NC(=O)[C@@H]2CCCN2C(=O)[C@@H](Cc2c[nH]cn2)NC(=O)[C@@H]2CCCCN2C(=O)[C@H]2CCCCN2C1=O [Example 11, Cyclo[D-a-naphthalalanyl-L-isoleucyl-D-pipecolyl-L-pipecolyl-D-histidyl-L-prolyl]] (cyclo(I[dPip][Pip][dH]P[d1Nal]))
inhibition at 0.01 µM ([3]; 1 h, @ 10 (nM), read-out: [^3 H]OT: percent inhibition of radioligand at the given concentration): 39%
